Among the test systems are MDA-N; RXF-631 renal; HOP-18 NSCLC; DMS 273 small cell lung; KM20L2 colon; SNB-78 CNS; DMS 114 small cell lung; DLD-1 colon; XF 498 CNS.
Holding throughout (assay): NCI anticancer screen, dose series, 48 h

≈ marks a conversion by molar mass, not a printed value. Where “and” joins values, the source holds several entries; their conditions need not be identical. Equal entries are not always repeated.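 Compound exposure: 48 hours, 5 concentrations, 96-well plates. GI50 = concentration required for 50% inhibition of growth. The concentration for full growth arrest is given as TGI.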 Where only a bound is given, the exact number is not on record here.

Consider `C=C1C(=O)OC2CCN3CC=C(COC(=O)C(C)(O)C4(CO4)C1C)C23` (configuration not stated), for which the TGI in the experiment on MDA-N was > 100 µM.

`CC1=NNC(=O)C2CCC(=O)N12` (configuration not stated): the TGI in the experiment with RXF-631 renal, in the experiment on HOP-18 NSCLC, with DMS 273 small cell lung, in the experiment on KM20L2 colon, with SNB-78 CNS and in the experiment on DMS 114 small cell lung was > 100 µM each time. Besides, in the experiment on DLD-1 colon, the TGI was > 100 µM.

Take `Cc1ccc(Cc2c(=O)[nH]nc3ccccc23)cc1`: the TGI with RXF-631 renal, in the experiment with XF 498 CNS, in the experiment with HOP-18 NSCLC, with DMS 273 small cell lung, in the experiment with KM20L2 colon and in the experiment on SNB-78 CNS was > 100 µM each time. The TGI with DMS 114 small cell lung and in the experiment on DLD-1 colon was > 100 µM each time.

As for `CC1(C)COC(c2cccnc2/C=N/O)=N1`, the TGI in the experiment with RXF-631 renal, in the experiment on XF 498 CNS, with HOP-18 NSCLC, with DMS 273 small cell lung, in the experiment with KM20L2 colon and in the experiment on SNB-78 CNS was > 100 µM each time. Besides, the TGI in the experiment with DLD-1 colon was > 100 µM.

As for `O=[N+]([O-])c1ccc(C2=Nn3cnnc3SC2)o1`, the TGI in the experiment with RXF-631 renal amounted to 28.1 µM; in the experiment with XF 498 CNS it was 30.2 µM; with DMS 273 small cell lung, 36.3 µM; with SNB-78 CNS, 51.9 µM; in the experiment with DMS 114 small cell lung, 28.8 µM; in the experiment with DLD-1 colon, 41.4 µM.

For `N#CC(N)(C(=O)CCC(=O)Nc1cccc(Cl)c1)c1ccc(Cl)cc1` (configuration not stated), the TGI in the experiment with XF 498 CNS, with HOP-18 NSCLC, in the experiment on DMS 273 small cell lung, with KM20L2 colon, in the experiment on SNB-78 CNS and in the experiment on DMS 114 small cell lung was > 100 µM throughout. Further, the TGI in the experiment with DLD-1 colon was > 100 µM.

For the compound `N#Cc1nc(Nc2cccc3ccccc23)sc1N`, the TGI in the experiment with XF 498 CNS was > 100 µM; with DMS 273 small cell lung it was > 100 µM; in the experiment on KM20L2 colon, > 100 µM; in the experiment with SNB-78 CNS, 75.6 µM; with DLD-1 colon it was > 100 µM.

Take `COC(=O)C1=C(O)c2cc(OC)c(OC)cc2C(c2ccc(OC)c(OC)c2)C1` (configuration not stated): the TGI in the experiment on RXF-631 renal, in the experiment on XF 498 CNS, with HOP-18 NSCLC, in the experiment with DMS 273 small cell lung, in the experiment with KM20L2 colon and in the experiment on SNB-78 CNS was > 100 µM each time. The TGI with DMS 114 small cell lung and in the experiment on DLD-1 colon was > 100 µM throughout.

Consider `CCCCC(C(=O)C(=O)NC1C2CC3CC(C2)CC1C3)C(=O)C(C)C` (configuration not stated), for which the TGI with RXF-631 renal, in the experiment with XF 498 CNS, in the experiment on HOP-18 NSCLC, in the experiment on DMS 273 small cell lung, in the experiment with KM20L2 colon and with SNB-78 CNS was > 100 µM each time. The TGI with DMS 114 small cell lung is > 100 µM.

As for `CS(=O)(=O)Nc1ccc2c(c1)oc(=O)c1ccccc12`, the TGI with MDA-N is > 100 µM.

Turning to `NC(=O)NC1C(c2ccccc2)=C1c1ccccc1`, the TGI in the experiment on MDA-N was determined as 34.4 µM.

In the case of `CC(C)c1ccccc1NC(=O)CCc1n[nH]c(=S)o1`, the TGI was > 100 µM in the experiment with RXF-631 renal; > 100 µM in the experiment on XF 498 CNS; > 100 µM in the experiment with HOP-18 NSCLC; > 90.7 µM in the experiment on DMS 273 small cell lung; > 100 µM in the experiment with KM20L2 colon; > 100 µM in the experiment on SNB-78 CNS. The figures for the TGI in the experiment with DMS 114 small cell lung and in the experiment with DLD-1 colon were > 100 µM and > 89.2 µM, respectively.

For `S=C(Nc1ccccc1)N(/N=C/C=C/c1ccccc1)c1nnc(-c2ccccc2)c(-c2ccccc2)n1`, the TGI with RXF-631 renal, in the experiment on XF 498 CNS, in the experiment on DMS 273 small cell lung, with KM20L2 colon, with SNB-78 CNS and with DMS 114 small cell lung was > 100 µM each time. Further, the TGI in the experiment on DLD-1 colon was > 100 µM.

Regarding `Cn1c2c(c3ccccc31)C1CCCCCCC1C1C(=O)OC(=O)C21` (configuration not stated), the TGI in the experiment on RXF-631 renal is > 100 µM; with XF 498 CNS it was 93.1 µM; with HOP-18 NSCLC it was > 100 µM; in the experiment on DMS 273 small cell lung, 42.7 µM; in the experiment on SNB-78 CNS it was > 100 µM; in the experiment with DMS 114 small cell lung, 75.2 µM. The TGI in the experiment on DLD-1 colon is > 100 µM.

Turning to `COc1cc(C#CC(=O)OC/C=C/c2ccc3c(c2)OCO3)cc(OC)c1OC`, the TGI in the experiment on MDA-N was determined as 45 µM.

Consider `COc1cc(C(Cc2ccccc2)NC(C)=O)oc(=O)c1` (configuration not stated), for which the TGI in the experiment with XF 498 CNS, in the experiment with DMS 273 small cell lung, with KM20L2 colon, in the experiment on DMS 114 small cell lung and with DLD-1 colon was > 100 µM throughout.

In the case of `CNC(=O)N(C)N=NCCCl`, the TGI with MDA-N, with DMS 273 small cell lung, in the experiment with KM20L2 colon, in the experiment on DMS 114 small cell lung and with DLD-1 colon was > 100 µM throughout.

Take `O/N=C/C1C(OCc2ccccc2)C(OCc2ccccc2)C(OCc2ccccc2)CN1Cc1ccccc1` (configuration not stated): the TGI in the experiment on MDA-N is 39.3 µM and > 100 µM.

Turning to `C=C(c1nc2ccc(Cl)cc2[nH]c1=O)C(O)c1ccc(C(O)C(=O)c2nc3ccc(Cl)cc3[nH]c2=O)cc1` (configuration not stated), the TGI with MDA-N, with RXF-631 renal, in the experiment on XF 498 CNS, in the experiment on DMS 273 small cell lung, in the experiment with KM20L2 colon and with SNB-78 CNS was > 100 µM each time. The TGI in the experiment with DMS 114 small cell lung and in the experiment on DLD-1 colon was > 100 µM in each case.

Regarding `COc1cc(N(CCC#N)CCC#N)ccc1/C(N=Nc1ccc([N+](=O)[O-])cc1)=N/NC(=O)c1cc(Br)ccc1O`, in the experiment on MDA-N, the GI50 is 43.8 µg/mL (≈ 70.7 µM) and the TGI was found to be 126 µg/mL.

For the compound `CCOc1ccccc1C=C1c2ccccc2C(=O)c2ccccc21`, the TGI in the experiment with DMS 273 small cell lung is 15.7 µM; in the experiment on SNB-78 CNS it was > 100 µM; in the experiment with DMS 114 small cell lung, 15.9 µM; in the experiment with DLD-1 colon, > 100 µM.

For `CC1=C(C(=O)Nc2ccccc2)C(c2ccccc2)C(C(=O)Nc2ccccc2)=C(C)N1`, the TGI in the experiment on HOP-18 NSCLC, with DMS 273 small cell lung, in the experiment on KM20L2 colon, with SNB-78 CNS, in the experiment on DMS 114 small cell lung and with DLD-1 colon was > 100 µM each time.

As to `O=C1c2cccc(NCCCNCCO)c2C(=O)c2cccc(NCCCNCCO)c21`, the TGI with MDA-N was 3.23 µM; with XF 498 CNS, 2.4 µM and 7.26 µM; in the experiment with HOP-18 NSCLC it was 7.69 µM; in the experiment with DMS 273 small cell lung, 3.98 µM and 5.13 µM; in the experiment with KM20L2 colon it was 6.72 µM and 9.95 µM; with SNB-78 CNS it was 6.7 µM and 17.1 µM. Moreover, the TGI is 1.92 µM and 4.77 µM in the experiment on DMS 114 small cell lung; 12 µM and 6.25 µM in the experiment with DLD-1 colon. The GI50 is 0.827 µM and 2.41 µM with XF 498 CNS; 0.476 µM and 1.24 µM in the experiment on DMS 114 small cell lung.

The record behind these values is PubChem BioAssay (NCI).
